# Experimental data: US20130183435A1, “LOW TEMPERATURE PLASMA COATING FOR ANTI-BIOFILM FORMATION” (priority 2012, published 2013)
# Key:
# S. epidermidis biofilm = test: Antibiotic susceptibility assay of cells attached on wafers with different dose of ciprofloxacin; type: cell-based; conditions: for decrease of the number of bacteria recovered from biofilms / bacteria recovered: 128 μg/ml; for decrease of the number of bacteria recovered from biofilms: 48 hours
# Procedure: Antibiotic susceptibility assay of S. epidermidis cells attached on wafers with different dose of antibiotics. Biofilm formation on the four groups of wafers in triplicate was performed as described in biofilm formation assay section. The wafers with biofilms were gently washed four times with PBS to remove non-adherent bacterial cells. Then fresh Mueller Hinton broth (MHB) with 0, 2, 8, 32, and 128 μg/ml ciprofloxacin (Sigma-Aldrich, St Louis, Mo.) was added into the wells containing wafers and cultured at 37° C. for 48 hours, with MHB medium with corresponding concentration of ciprofloxacin changed every 12 hours. The wafers were washed four times with PBS and bacteria numbers on the wafers were counted.
# [1] = system: S. epidermidis RP62A biofilm; test: Susceptibility of bacterial cells in biofilm to 6 μg/ml antibiotic; type: cell-based; conditions: for reduction of bacterial count in biofilm: 8 hours
# Procedure: Susceptibility of bacterial cells in biofilm to antibiotics was studied with a protocol established previously with modification. SS and Ti wafers (1×1 cm) were sterilized, coated with human plasma, and placed into the wells of 24-well microplates. Overnight culture of S. epidermidis was diluted 1:200 into fresh THY medium with 0.5% glucose. Aliquots (1 ml) of the cell suspensions were seeded into each well containing wafers and incubated at 37° C. for 16 hours. The wafers were gently washed three times with PBS to remove non-adherent bacterial cells. Then fresh Mueller Hinton broth (MHB) with and without 6 μg/ml vancomycin or ciprofloxacin was added into the wells containing wafers and cultured at 37° C. for 8 hours. The wafers were washed four times with PBS and then put into tubes with PBS. The biofilms on wafers were detached and disaggregated with ultrasonic bath treatment. The number of bacterial cells was quantified using the spread plate technique. Response to antibiotic treatment of a treated sample was defined as the percentage of untreated samples calculated by CFU numbers. Triplicate of wafers were used in each experiments and four independent experiments were performed for vacomycin and three independent experiments were performed for ciprofloxacin.
Compound,"number of bacteria, percent of bacteria on bare surfaces with neither TMS coating nor ciprofloxacin treatment (S. epidermidis biofilm; 8 μg/ml, TMS coated surfaces)","number of bacteria, percent of bacteria on TMS coated surfaces without ciprofloxacin treatment (S. epidermidis biofilm; 32 μg/ml, TMS coated surfaces)",decrease of the number of bacteria recovered from biofilms (S. epidermidis biofilm; uncoated SS surfaces) [%],decrease of the number of bacteria recovered from biofilms (S. epidermidis biofilm; uncoated Ti surfaces) [%],bacteria recovered (S. epidermidis biofilm; TMS coated SS surfaces),bacteria recovered (S. epidermidis biofilm; TMS coated Ti surfaces),"MBC for biofilms (S. epidermidis biofilm; biofilms on TMS coated surfaces, MBC = 99.9% (3 log10 units) decrease)",MBC for bacteria in biofilms (S. epidermidis biofilm; biofilms on uncoated surfaces),reduction of bacterial count in biofilm ([1]; TMS coated SS wafer),reduction of bacterial count in biofilm ([1]; TMS coated Ti wafer) [%],reduction of bacterial count in biofilm ([1]; uncoated SS wafer) [%],reduction of bacterial count in biofilm ([1]; uncoated Ti wafer) [%],response of bacterial cells to antibiotic treatment ([1]; uncoated wafers)
O=C(O)c1cn(C2CC2)c2cc(N3CCNCC3)c(F)cc2c1=O [ciprofloxacin],less than 0.01%,less than 0.1%,99.6±0.07,99.3±0.1,177±80,444±217,less than 32 μg/ml,more than 128 μg/ml,99.4±0.1%,96.8±1.4,86±1.2,81.8±3.2,–
"CN[C@H](CC(C)C)C(=O)N[C@H]1C(=O)N[C@@H](CC(N)=O)C(=O)N[C@H]2C(=O)N[C@H]3C(=O)N[C@H](C(=O)N[C@H](C(=O)O)c4cc(O)cc(O)c4-c4cc3ccc4O)[C@H](O)c3ccc(c(Cl)c3)Oc3cc2cc(c3O[C@@H]2O[C@H](CO)[C@@H](O)[C@H](O)[C@H]2O[C@H]2C[C@](C)(N)[C@H](O)[C@H](C)O2)Oc2ccc(cc2Cl)[C@H]1O [vacomycin, vancomycin]",–,–,–,–,–,–,–,–,about 83.8±4.3%,91.9±1.6,–,–,resistant
